Reference: US11325938B2, “CD73 inhibitors” (ORIC Pharmaceuticals, Inc., priority 2018, dated 2022)

target: CD73 (Homo sapiens (Human), UniProt P21589); assay: Biochemical assay: inhibition of CD73 activity (AMP hydrolysis, Malachite Green readout); settings: CD73 0.3208 nM, AMP 15 μM, 25 mM Tris-HCl pH 7.4, RT, absorbance 620 nm
In short: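 Phosphate from AMP hydrolysis (15 μM AMP, 10 min, RT) was detected by Malachite Green absorbance to give IC50s. Enzyme at 320 pM was first exposed 15 min to compounds, dosed from 100 μM in ½-log steps, in Tris pH 7.4 buffer with MgCl2, Brij-35 and BSA.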

CD73, sequence (P21589 27-574): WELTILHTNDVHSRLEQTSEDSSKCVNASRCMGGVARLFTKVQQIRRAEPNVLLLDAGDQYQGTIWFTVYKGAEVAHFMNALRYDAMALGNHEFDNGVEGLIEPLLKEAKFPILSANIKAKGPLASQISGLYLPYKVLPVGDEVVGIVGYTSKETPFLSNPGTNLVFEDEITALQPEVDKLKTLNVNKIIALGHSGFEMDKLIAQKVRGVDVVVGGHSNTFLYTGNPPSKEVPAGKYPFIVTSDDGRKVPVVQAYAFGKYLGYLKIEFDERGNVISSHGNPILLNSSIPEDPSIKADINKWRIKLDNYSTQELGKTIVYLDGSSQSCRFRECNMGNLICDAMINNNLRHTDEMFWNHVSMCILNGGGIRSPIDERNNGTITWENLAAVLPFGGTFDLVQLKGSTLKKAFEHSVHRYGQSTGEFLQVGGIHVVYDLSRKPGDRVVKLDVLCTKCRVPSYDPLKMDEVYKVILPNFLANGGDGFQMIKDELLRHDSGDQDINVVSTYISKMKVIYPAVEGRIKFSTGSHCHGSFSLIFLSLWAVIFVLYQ

IC50, ≤ 100 nM:
C[C@](CO)(OC[C@H]1O[C@@H](n2ncc3c(NC4CCCC4)nc(CO)nc32)[C@H](O)[C@@H]1O)P(=O)(O)O [Example 127, ((S)-2-(((2R,3S,4R,5R)-5-(4-(cyclopentylamino)-6-(hydroxymethyl)-1H-pyrazolo[3,4-d]pyrimidin-1-yl)-3,4-dihydroxytetrahydrofuran-2-yl)methoxy)-1-hydroxypropan-2-yl)phosphonic acid]
O=P(O)(O)[C@H](CO)OC[C@H]1O[C@@H](n2nnc3c(NC4CCCC4)cc(Cl)nc32)[C@H](O)[C@@H]1O [Example 144, ((R)-1-(((2R,3S,4R,5R)-5-(5-chloro-7-(cyclopentylamino)-3H-[1,2,3]triazolo[4,5-b]pyridin-3-yl)-3,4-dihydroxytetrahydrofuran-2-yl)methoxy)-2-hydroxyethyl)phosphonic acid]
COCC(OC[C@H]1O[C@@H](n2ncc3c(NC4CCCC4)nc(Cl)nc32)[C@H](O)[C@@H]1O)(C(=O)O)P(=O)(O)O (mixture of isomers) [Example 221, rac-(R)-2-(((2R,3S,4R,5R)-5-(6-chloro-4-(cyclopentylamino)-1H-pyrazolo[3,4-d]pyrimidin-1-yl)-3,4-dihydroxytetrahydrofuran-2-yl)methoxy)-3-methoxy-2-phosphonopropanoic acid]
CC(C)OC[C@](CO)(OC[C@H]1O[C@@H](n2ncc3c(NC4CCCC4)nc(Cl)nc32)[C@H](O)[C@@H]1O)P(=O)(O)O [Example 114, ((R)-2-(((2R,3S,4R,5R)-5-(6-chloro-4-(cyclopentylamino)-1H-pyrazolo[3,4-d]pyrimidin-1-yl)-3,4-dihydroxytetrahydrofuran-2-yl)methoxy)-1-hydroxy-3-isopropoxypropan-2-yl)phosphonic acid]
